IC50 data for 32 compounds are collected here from US6875760B2 (Novo Nordisk A/S, priority 1999, dated 2005).

The target of the assay is T1, human glucagon receptor (Homo sapiens, UniProt P47871).
T1 construct: expressed in transfected cells; host or cells: BHK (baby hamster kidney) cells
Nature of the assay: Glucagon Binding Assay (III). The settings on record: BHK cell membranes, WGA SPA beads, 125I-glucagon; read-out: Glu Bd Assay (III) IC50. In outline: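 Membranes from BHK cells transfected with the human receptor, prepared at 4 °C, were used in a WGA-bead scintillation proximity binding format. Plates were shaken for 4 hours, left to settle 8–48 hours and then counted. Non-specific binding was defined with 500 nM glucagon.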

T1 sequence (P47871 26-477): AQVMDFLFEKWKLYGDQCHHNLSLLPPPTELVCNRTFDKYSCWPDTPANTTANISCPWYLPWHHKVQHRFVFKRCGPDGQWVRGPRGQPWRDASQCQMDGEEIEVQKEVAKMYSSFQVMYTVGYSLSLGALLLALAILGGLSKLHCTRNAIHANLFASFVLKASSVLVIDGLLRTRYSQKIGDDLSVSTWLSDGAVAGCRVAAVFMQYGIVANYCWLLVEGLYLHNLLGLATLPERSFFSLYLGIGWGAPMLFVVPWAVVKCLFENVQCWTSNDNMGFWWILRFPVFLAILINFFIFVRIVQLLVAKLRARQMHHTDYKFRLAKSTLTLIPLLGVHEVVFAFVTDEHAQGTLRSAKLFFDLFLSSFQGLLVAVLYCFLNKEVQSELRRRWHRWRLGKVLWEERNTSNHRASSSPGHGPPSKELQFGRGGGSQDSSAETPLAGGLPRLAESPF

One may read the IC50 as the midpoint of a concentration-inhibition curve. Take `O=C(Nc1nn[nH]n1)c1ccc(CN(CC(c2ccccc2)c2ccccc2)C(=O)Cc2ccc(OC(F)(F)F)cc2)cc1` [Example 531]: the IC50 came to 627 nM. As for `O=C(Nc1nn[nH]n1)c1ccc(CN(C(=O)CSCc2ccccc2)c2ccc(C3CCCCC3)cc2)cc1` [Example 532, 4-{[(2-Benzylsulfanylacetyl)-(4-cyclohexylphenyl)amino]methyl}-N-(2H-tetrazol-5-yl)benzamide], the figure is 626 nM; as for `O=C(Nc1nn[nH]n1)c1ccc(CN(C(=O)CCOc2ccccc2)c2ccc(C3CCCCC3)cc2)cc1` [Example 533, 4-{[(4-Cyclohexylphenyl)-(3-phenoxypropionyl)amino]methyl}-N-(2H-tetrazol-5-yl)benzamide], 1800 nM; as for `O=C(Nc1nn[nH]n1)c1ccc(CN(C(=O)/C=C/c2cccc3ccccc23)c2ccc(C3CCCCC3)cc2)cc1` [Example 534, 4-{[(4-Cyclohexylphenyl)-(3-naphthalen-1-ylacryloyl)amino]methyl}-N-(2H-tetrazol-5-yl)benzamide], 282 nM. With `O=C(Nc1nn[nH]n1)c1ccc(CN(C(=O)CCCc2ccccc2)c2ccc(C3CCCCC3)cc2)cc1` [Example 535, 4-{[(4-Cyclohexylphenyl)-(4-phenylbutyryl)amino]methyl}-N-(2H-tetrazol-5-yl)benzamide], the concentration for half-maximal inhibition (IC50) stood at 224 nM. Then `CC(C)(C)C1CCC(N(Cc2ccc(C(=O)Nc3nn[nH]n3)cc2)C(=O)CSCc2ccccc2)CC1` (centres unmarked) [Example 537, 4-{[(2-Benzylsulfanylacetyl)-(4-tert-butylcyclohexyl)amino]methyl}-N-(2H-tetrazol-5-yl)benzamide], with 280 nM; and `CC(C)(C)C1CCC(N(Cc2ccc(C(=O)Nc3nn[nH]n3)cc2)C(=O)C/C=C/c2ccccc2)CC1` (centres unmarked) [Example 538, 4-{[(4-tert-Butylcyclohexyl)-(4-phenylbut-3-enoyl)amino]methyl}-N-(2H-tetrazol-5-yl)benzamide], with 180 nM; and `CC(C)(C)C1CCC(N(Cc2ccc(C(=O)Nc3nn[nH]n3)cc2)C(=O)Cc2c(Cl)cccc2Cl)CC1` (centres unmarked) [Example 539, 4-({(4-tert-Butylcyclohexyl)-[2-(2,6-dichlorophenyl)acetyl]amino}methyl)-N-(2H-tetrazol-5-yl)benzamide], with 386 nM. As for `CC(C)(C)C1CCC(N(Cc2ccc(C(=O)Nc3nn[nH]n3)cc2)C(=O)CCC(=O)c2ccc(Cl)cc2)CC1` (centres unmarked) [Example 540, 4-({(4-tert-Butylcyclohexyl)-[4-(4-chlorophenyl)-4-oxobutyryl]amino}methyl)-N-(2H-tetrazol-5-yl)benzamide], the figure is 540 nM. Then `CC(C)(C)C1CCC(N(Cc2ccc(C(=O)Nc3nn[nH]n3)cc2)C(=O)CCC(=O)c2ccccc2)CC1` (centres unmarked) [Example 541, 4-({(4-tert-Butylcyclohexyl)-(4-oxo-4-phenylbutyryl)amino]methyl}-N-(2H-tetrazol-5-yl)benzamide], with 805 nM; and `CC(Oc1ccc(Cl)cc1)C(=O)N(Cc1ccc(C(=O)Nc2nn[nH]n2)cc1)C1CCC(C(C)(C)C)CC1` (centres unmarked) [Example 542, 4-({(4-tert-Butylcyclohexyl)-[2-(4-chlorophenoxy)propionyl]amino}methyl)-N-(2H-tetrazol-5-yl)benzamide], with 304 nM. For `CC(C)(C)C1CCC(N(Cc2ccc(C(=O)Nc3nn[nH]n3)cc2)C(=O)Cc2cccc(OC(F)(F)F)c2)CC1` (centres unmarked) [Example 543, 4-({(4-tert-Butylcyclohexyl)-[2-(3-trifluoromethoxyphenyl)acetyl]amino}methyl)-N-(2H-tetrazol-5-yl)benzamide], the IC50 amounted to 201 nM. As to `CC(C)(C)C1CCC(N(Cc2ccc(C(=O)Nc3nn[nH]n3)cc2)C(=O)/C=C/c2cccc3ccccc23)CC1` (centres unmarked) [Example 544], the IC50 was determined as 552 nM. Take `CC(C)(C)C1CCC(N(Cc2ccc(C(=O)Nc3nn[nH]n3)cc2)C(=O)CCCc2ccccc2)CC1` (centres unmarked) [Example 545, 4-([(4-tert-Butylcyclohexyl)-(4-phenylbutyryl)amino]methyl}-N-(2H-tetrazol-5-yl)benzamide]: the IC50 turned out to be 47 nM. As for `CC(C)(C)C1CCC(N(Cc2ccc(C(=O)Nc3nn[nH]n3)cc2)C(=O)C2=CCc3ccccc32)CC1` (centres unmarked) [Example 546, 4-([(4-tert-Butylcyclohexyl)-(3H-indene-1-carbonyl)amino]methyl}-N-(2H-tetrazol-5-yl)benzamide], the figure is 1740 nM; as for `CC(C)(C)C1CCC(N(Cc2ccc(C(=O)Nc3nn[nH]n3)cc2)C(=O)Cc2ccc(-c3ccccc3)cc2)CC1` (centres unmarked) [Example 547, 4-{[(2-Biphenyl-4-ylacetyl)-(4-tert-butylcyclohexyl)amino]methyl}-N-(2H-tetrazol-5-yl)benzamide], 88 nM; as for `CC(Oc1cccc(Cl)c1)C(=O)N(Cc1ccc(C(=O)Nc2nn[nH]n2)cc1)C1CCC(C(C)(C)C)CC1` (centres unmarked) [Example 548, 4-({(4-tert-Butylcyclohexyl)-[2-(3-chlorophenoxy)propionyl]amino}methyl)-N-(2H-tetrazol-5-yl)benzamide], 309 nM. As for `CC(C)(C)C1CCC(N(Cc2ccc(C(=O)Nc3nn[nH]n3)cc2)C(=O)/C=C/c2ccc(Cl)cc2)CC1` (centres unmarked) [Example 549, 4-({(4-tert-Butylcyclohexyl)-[3-(4-chlorophenyl)acroloyl]amino}methyl)-N-(2H-tetrazol-5-yl)benzamide], the figure is 55 nM; as for `CC(C(=O)N(Cc1ccc(C(=O)Nc2nn[nH]n2)cc1)C1CCC(C(C)(C)C)CC1)c1ccccc1` (centres unmarked) [Example 550, 4-{[(4-tert-Butylcyclohexyl)-(2-Phenylpropionyl)amino]methyl}-N-(2H-tetrazol-5-yl)benzamide], 381 nM. Then `CC(C)(C)C1CCC(N(Cc2ccc(C(=O)Nc3nn[nH]n3)cc2)C(=O)/C=C/c2cccc(Cl)c2)CC1` (centres unmarked) [Example 551, 4-({(4-tert-Butylcyclohexyl)-[3-(3-chlorophenyl)acroloyl]amino}methyl)-N-(2H-tetrazol-5-yl)benzamide], with 136 nM; and `CC(C)(C)C1CCC(N(Cc2ccc(C(=O)Nc3nn[nH]n3)cc2)C(=O)/C=C/c2c(Cl)cccc2Cl)CC1` (centres unmarked) [Example 552, 4-({(4-tert-Butylcyclohexyl)-[3-(2,6-dichlorophenyl)acryloyl]amino}methyl)-N-(2H-tetrazol-5-yl)benzamide], with 133 nM. `CC(Oc1ccc(OC(F)(F)F)cc1)C(=O)N(Cc1ccc(C(=O)Nc2nn[nH]n2)cc1)c1ccc(N2CCCCC2)cc1` (centres unmarked) [Example 554, 4-({(4-Piperidin-1-ylphenyl)-[2-(4-trifluoromethoxyphenoxy)propionyl]amino}methyl)-N-(2H-tetrazol-5-yl)benzamide]: the concentration for half-maximal inhibition (IC50) stood at 788 nM.

For the compound `O=C(Nc1nn[nH]n1)c1ccc(CN(C(=O)/C=C/c2ccccc2Cl)c2ccc(N3CCCCC3)cc2)cc1` [Example 555, 4-{[[3-(2-Chlorophenyl)acryloyl]-(4-piperidin-1-ylphenyl)amino]methyl}-N-(2H-tetrazol-5-yl)benzamide], the IC50 amounted to 604 nM. As for `O=C(O)CCNC(=O)c1ccc(CN(CC(c2ccccc2)c2ccccc2)C(=O)Cc2cccc(OC(F)(F)F)c2)cc1` [Example 556], the figure is 660 nM; as for `CC(C)(C)C1CCC(N(Cc2ccc(C(=O)Nc3nn[nH]n3)cc2)C(=O)c2cc3cc(OC(F)(F)F)ccc3[nH]2)CC1` (centres unmarked) [Example 557, 5-Trifluoromethoxy-1H-indole-2-carboxylic acid (4-tert-butylcyclohexyl)-[4-(2H-tetrazol-5-ylcarbamoyl)benzyl]amide], 266 nM; as for `O=C(Nc1nn[nH]n1)c1ccc(CN(C(=O)c2cc3cc(OC(F)(F)F)ccc3[nH]2)c2ccc(C3CCCCC3)cc2)cc1` [Example 558, 5-Trifluoromethoxy-1H-indole-2-carboxylic acid (4-cyclohexylphenyl)-[4-(2H-tetrazol-5-ylcarbamoyl)benzyl]amide], 1060 nM. For `CC(C)(C)c1ccc(N(Cc2ccc(C(=O)Nc3nn[nH]n3)cc2)C(=O)c2cc3cc(OC(F)(F)F)ccc3[nH]2)cc1` [Example 559, 5-Trifluoromethoxy-1H-indole-2-carboxylic acid (4-tert-butylphenyl)-[4-(2H-tetrazol-5-ylcarbamoyl)benzyl]amide], the IC50 turned out to be 1090 nM.

As to `O=C(O)CCNC(=O)c1ccc(CN(C(=O)c2cc(-c3ccc(Cl)cc3)cs2)c2ccc(C3CCCCC3)cc2)cc1` [Example 560, 3-(4-{[[4-(4-Chlorophenyl)thiophene-2-carbonyl]-(4-cyclohexylphenyl)amino]methyl}benzoylamino)propionic acid], the half-maximal inhibitory concentration (IC50) came out at 1550 nM. As for `O=C(O)CCNC(=O)c1ccc(CN(C(=O)c2cc3cc(Cl)ccc3o2)c2ccc(C3CCCCC3)cc2)cc1` [Example 561, 3-(4-{[(5-Chlorobenzofuran-2-carbonyl)-(4-cyclohexylphenyl)amino]methyl}benzoylamino)propionic acid], the figure is 372 nM; as for `CC(C)(C)C1CCC(N(Cc2ccc(C(=O)NCCC(=O)O)cc2)C(=O)c2cc3cc(Cl)ccc3o2)CC1` (centres unmarked) [Example 562, 3-(4-{[(4-tert-Butylcyclohexyl)-(5-chlorobenzofuran-2-carbonyl)amino]methyl}benzoylamino)propionic acid], 146 nM; as for `O=C(O)CCNC(=O)c1ccc(CN(CC(c2ccccc2)c2ccccc2)C(=O)c2cc3cc(Cl)ccc3o2)cc1` [Example 563, 3-(4-{[(5-Chlorobenzofuran-2-carbonyl)-(2,2-diphenylethyl)amino]methyl}benzoylamino)propionic acid], 407 nM.

Take `CC(C)(C)C1CCC(N(Cc2ccc(C(=O)Nc3nn[nH]n3)cc2)C(=O)c2cc(-c3ccc(Cl)cc3)cs2)CC1` (centres unmarked) [Example 564, 4-(4-Chlorophenyl)thiophene-2-carboxylic acid (4-tert-butylcyclohexyl)-[4-(2H-tetrazol-5-ylcarbamoyl)benzyl]amide]: the 50% inhibitory concentration (IC50) was found to be 98 nM.
